According to US5273986A, “Cycloalkylthiazoles” (Hoffmann-La Roche Inc., priority 1992, dated 1993):
Like-named read-outs stand apart in the source and are kept apart here.

Key:
LTD4 receptor = biological target: T1, LTD4 receptor (Cavia porcellus, UniProt Q2NNR5); experiment: LTD4 receptor ligand binding assay (inhibition of [3H]LTD4 specific binding, guinea pig lung membranes); settings: 20° C., 30 min
T1 construct: A lung homogenate was prepared from guinea pig lung membranes; from tissue; host or cells: guinea pig lung membranes
T1 sequence (Q2NNR5 1-340): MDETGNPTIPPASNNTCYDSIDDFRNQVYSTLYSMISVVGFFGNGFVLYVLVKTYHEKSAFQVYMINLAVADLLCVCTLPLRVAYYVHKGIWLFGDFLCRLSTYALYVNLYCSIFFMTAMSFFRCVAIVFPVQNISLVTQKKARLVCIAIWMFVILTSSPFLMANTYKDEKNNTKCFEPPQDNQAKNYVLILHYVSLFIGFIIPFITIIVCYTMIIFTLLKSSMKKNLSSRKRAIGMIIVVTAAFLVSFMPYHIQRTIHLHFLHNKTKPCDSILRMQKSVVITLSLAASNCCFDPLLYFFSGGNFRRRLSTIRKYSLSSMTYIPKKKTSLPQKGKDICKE
Method: A lung homogenate was prepared from guinea pig lung membranes and was resuspended in buffer containing 10 mM Tris.HCl (pH 7.5) (Hogaboom et al., Hogaboom, G. K., et al: Peptidoleukotrienes: distinct receptors for leukotriene C4 and D4 in the guinea pig lung. Biochem. Biophys. Res. Commun. 116: 1136-1143, 1983). Optimum assay conditions were determined with an assay mixture containing: 10 mM Tris.HCl (pH 7.5); 0.1% bovine serum albumin (BSA); 1 mM glycine; 1 mM cysteine; 3.5 nM [^3 H]LTD4 and the membrane preparation ([…] protein) in a final volume of […]. The incubation was carried out at 20° C. for 30 minutes. At 20° C., binding increased linearly with protein concentration, reached equilibrium in 20 minutes, was saturable, and was reversible upon addition of 1 mM unlabelled LTD4. Separation of bound from free [^3 H]LTD4 as performed by rapid filtration on GF/C glass fiber filters (Whatman International Ltd., Maidstone, England) and washing with two 4-ml aliquots of Tyrode solution (0.9 g/100 ml NaCl; 0.02 g/100 ml KCl; 0.02 g/100 ml CaCl2; 0.01 g/100 ml MgCl2; 0.1 g/100 ml glucose; 0.1 g/100 ml NaHCO3; 0.005 g/100 ml NaH2 PO4) containing 0.1% BSA. Radioactivity remaining on the filters was measured in 10 ml of Aquasol. Specific binding, was defined as that displaced by 1 mM unlabelled LTD4, and was 95% of total binding.
The inhibition of [^3 H]LTD4 specific binding by an antagonist is related to the LTD4 content of that sample by regression analysis from a "standard curve" of the inhibition of [^3 H]LTD4 specific binding by nonlabeled LTD4. The median inhibitory concentration (IC50 value) was determined by linear regression of log concentration-response curves generated by at least 3 concentrations that caused statistically significant inhibition between 10 and 90%. Results are expressed as mean±S. E. M. (standard error of the mean) of n independent experiments (separate receptor batches) conducted in duplicates.

[1] = tested on: LTD4-induced bronchoconstriction; experiment: Antagonism of LTD4-induced bronchoconstriction in guinea pigs; assay type: in vivo, guinea pig (male, Hartley strain); settings: for ED50 / inhibition in vivo at 1 mg/kg: Cavia porcellus; for inhibition in vivo at 1 mg/kg: read-out: percent inhibition at 1 mg/kg p.o., LTD4-induced bronchoconstriction (ID50 not determined)
Method: Male guinea pigs (Hartley strain, Charles River) weighing 400-600 g were anesthetized with urethane (2 g/kg) intraperitoneally, and a polyethylene cannula was inserted into the jugular vein for intravenous drug administration. Tracheal pressure (cm of H2 O) was recorded from a Statham pressure transducer (P 32 AA). Propranolol was administered 5 minutes prior to challenge with LTD4. Two minutes later spontaneous breathing was arrested with succinylcholine chloride (1.2 mg/kg) administered intravenously, and the animals were ventilated with a Harvard (Model 680) small animal respirator set at 40 breaths/min and a 4.0 cc stroke volume. Control vehicle (DMSO) or test compound was administered through the cannula into the jugular vein 1 minute before the animals were challenged with a maximum constrictory dose of LTD4 ([…] I.V.) given intravenously. The change in tracheal pressure was averaged for control and drug-treated animals and percent inhibition was calculated. For determination of oral activity, animals were dosed with test compound or vehicle (PEG400) two hours prior to challenge with LTD4 ([…], i.v.).
The relative potency of test compounds administered by the intravenous and oral route was determined by administering increasing doses of test compound at a fixed pretreatment time. The median inhibitory dose (ID50 value) was determined by linear regression of log dose-responsecurves generated by at least 3 doses that caused statistically significant inhibition between 10 and 90%. The correlation coefficient for the regression line was always greater than 0.95. For determination of the time-course of inhibition for various compounds, the time between administration of compound and challenge with LTD4 was varied. Durations of action were defined as the time for inhibitory activity to decrease to 50%.

[2] = iv, 1 min, I.V., compound 1 minute before LTD4 challenge, read-out: ID50 I.V., LTD4-induced bronchoconstriction
[3] = po, 2 h, p.o., compound two hours prior to LTD4 challenge, read-out: ID50 p.o., LTD4-induced bronchoconstriction
[4] = po, 2 h, p.o., 1 mg/kg, compound two hours prior to LTD4 challenge

SMILES	IC50 (LTD4 receptor) [nM]	ED50 [1, 2] [mg/kg]	ED50 [1, 3] [mg/kg]	inhibition in vivo at 1 mg/kg [1, 4] [%]	percent inhibition at 1 mg/kg I.V., LTD4-induced bronchoconstriction (ID50 not determined) ([1]; I.V., 1 mg/kg, compound 1 minute before LTD4 challenge) [%]
O=C(Cc1ccccc1C(=O)O)Nc1cccc(/C=C/c2nc(C3CC3)cs2)c1 [Example 2, (E)-2-[2-[3-[2-[4-(Cyclopropyl)-2-thiazolyl]ethenyl]phenylamino]-2-oxoethyl]benzoic acid]	3	0.01	0.22	–	–
CC(C)c1csc(/C=C/c2cccc(NC(=O)Cc3cccc(CC(=O)O)c3)c2)n1 [Example 15, (E)-3-[2-[3-[2-[4-(1-Methylethyl)-2-thiazolyl]ethenyl]phenylamino]-2-oxoethyl]phenylacetic acid]	1000	–	–	–	40 ± 7
CC(C)c1csc(/C=C/c2cc(NC(=O)Cc3ccccc3C(=O)O)ccc2Cl)n1 [Example 17e, (E)-2-[2-[4-Chloro-3-[2-[4-(1-methylethyl)-2-thiazolyl]ethenyl]phenylamino]-2-oxoethyl]benzoic acid]	900	0.28	–	26 ± 7	–

More lines, main results first:

IC50 (LTD4 receptor) [nM]	SMILES	ED50 [1, 2] [mg/kg]	ED50 [1, 3] [mg/kg]	inhibition in vivo at 1 mg/kg [1, 4] [%]	percent inhibition at 1 mg/kg I.V., LTD4-induced bronchoconstriction (ID50 not determined) ([1]; I.V., 1 mg/kg, compound 1 minute before LTD4 challenge) [%]
3	O=C(Cc1ccccc1C(=O)O)Nc1cccc(/C=C/c2nc(C3CCC3)cs2)c1 [Example 3, (E)-2-[2-[3-[2-[4-(Cyclobutyl)-2-thiazolyl]ethenyl]phenylamino]-2-oxoethyl]benzoic acid]	0.01	0.22	–	–
1000	O=C(O)Cc1ccccc1CC(=O)Nc1cccc(/C=C/c2nc(C3CCC3)cs2)c1 [Example 13, (E)-2-[2-[3-[2-[4-(cyclobutyl)-2-thiazolyl]ethenyl]phenylamino]-2-oxoethyl]benzeneacetic acid]	0.01	0.78	–	–
1000	CC(C)c1csc(/C=C/c2cccc(NC(=O)Cc3ccccc3CC(=O)O)c2)n1 [Example 14, (E)-2-[2-[3-[2-[4-(1-Methylethyl)-2-thiazolyl]ethenyl]phenylamino]-2-oxoethyl]benzene acetic acid]	0.05	–	41 ± 8	–
